Species: Rattus norvegicus
Assay: Open TG-GATES - Regimen: Single
Assay type: toxicity, organism-based, Sprague-Dawley
Set-up: regimen Single, gender Male, age 6 weeks
Conditions: in vivo, sc, 0.2 mg/kg, route subcutaneous injection, dose 200 ug/Kg, dose level Middle; for APTT / Bas / Eos / Fbg / Hb / Ht / Lym / MCH / MCHC / MCV / Mono / Neu / PT / Plat / RBC / Ret / WBC: tissue Blood; for KIDNEY_L / KIDNEY_R / KIDNEY_TOTAL: tissue Kidney; for LIVER: tissue Liver; for A/G / ALP / ALT / AST / BUN / CRE / Ca / Cl / DBIL / GLC / IP / K / LDH / Na / PL / RALB / TBIL / TC / TG / TP / gamma-GTP: tissue Plasma

CC(=O)O.N=C(N)NCCC[C@@H](NC(=O)[C@@H]1CCCN1C(=O)[C@@H]1CSSCCC(=O)N[C@@H](Cc2ccc(O)cc2)C(=O)N[C@@H](Cc2ccccc2)C(=O)N[C@@H](CCC(N)=O)C(=O)N[C@@H](CC(N)=O)C(=O)N1)C(=O)NCC(N)=O [DESMOPRESSIN ACETATE]
TERMINAL_BW (3 h): 206.2 g
APTT (3 h): 17.6 s
Bas (3 h): 0%
Eos (3 h): 1%
Fbg (3 h): 256.3 mg/dL
Hb (3 h): 12.8 g/dL
Ht (3 h): 39.6%
Lym (3 h): 71.8%
MCH (3 h): 21.1 pg
MCHC (3 h): 32.3%
MCV (3 h): 65.1 fL
Mono (3 h): 7.6%
Neu (3 h): 19.6%
PT (3 h): 12.2 s
Plat (3 h): 112.4 x10_4/uL
RBC (3 h): 609.4 x10_4/ul
Ret (3 h): 8.8%
WBC (3 h): 77 x10_2/uL
KIDNEY_L (3 h): 0.9 g
KIDNEY_R (3 h): 1 g
KIDNEY_TOTAL (3 h): 1.9 g
LIVER (3 h): 9.9 g
A/G (3 h): 2
ALP (3 h): 1405.8 IU/L
ALT (3 h): 44.4 IU/L
AST (3 h): 81.2 IU/L
BUN (3 h): 23.8 mg/dL
CRE (3 h): 0.4 mg/dL
Ca (3 h): 11.8 mg/dL
Cl (3 h): 101 meq/L
DBIL (3 h): 0.012 mg/dL
GLC (3 h): 205.6 mg/dL
IP (3 h): 10.8 mg/dL
K (3 h): 4.6 meq/L
LDH (3 h): 272.6 IU/L
Na (3 h): 134.6 meq/L
PL (3 h): 145.8 mg/dL
RALB (3 h): 3.8 g/dL
TBIL (3 h): 0.05 mg/dL
TC (3 h): 77 mg/dL
TG (3 h): 99.8 mg/dL
TP (3 h): 5.7 g/dL
gamma-GTP (3 h): 0.8 IU/L
TERMINAL_BW (6 h): 205.6 g
APTT (6 h): 18.4 s
Bas (6 h): 0%
Eos (6 h): 1.6%
Fbg (6 h): 244.6 mg/dL
Hb (6 h): 13 g/dL
Ht (6 h): 39.7%
Lym (6 h): 71.8%
MCH (6 h): 21.4 pg
MCHC (6 h): 32.8%
MCV (6 h): 65.3 fL
Mono (6 h): 8.8%
Neu (6 h): 18%
PT (6 h): 12.5 s
Plat (6 h): 124.8 x10_4/uL
RBC (6 h): 609.4 x10_4/ul
Ret (6 h): 8.7%
WBC (6 h): 102.8 x10_2/uL
KIDNEY_L (6 h): 1 g
KIDNEY_R (6 h): 1 g
KIDNEY_TOTAL (6 h): 2 g
LIVER (6 h): 9.6 g
A/G (6 h): 2.1
ALP (6 h): 1316 IU/L
ALT (6 h): 34.8 IU/L
AST (6 h): 63.2 IU/L
BUN (6 h): 27.4 mg/dL
CRE (6 h): 0.3 mg/dL
Ca (6 h): 10.9 mg/dL
Cl (6 h): 101 meq/L
DBIL (6 h): 0.016 mg/dL
GLC (6 h): 200.6 mg/dL
IP (6 h): 10.3 mg/dL
K (6 h): 4.6 meq/L
LDH (6 h): 127.6 IU/L
Na (6 h): 135.4 meq/L
PL (6 h): 155.6 mg/dL
RALB (6 h): 3.7 g/dL
TBIL (6 h): 0.064 mg/dL
TC (6 h): 84.2 mg/dL
TG (6 h): 76.2 mg/dL
TP (6 h): 5.5 g/dL
gamma-GTP (6 h): 1 IU/L
TERMINAL_BW (9 h): 199.6 g
APTT (9 h): 17.9 s
Bas (9 h): 0%
Eos (9 h): 1.2%
Fbg (9 h): 239.4 mg/dL
Hb (9 h): 13.3 g/dL
Ht (9 h): 41%
Lym (9 h): 74.4%
MCH (9 h): 21.4 pg
MCHC (9 h): 32.4%
MCV (9 h): 66.2 fL
Mono (9 h): 7.4%
Neu (9 h): 17%
PT (9 h): 12.5 s
Plat (9 h): 112.4 x10_4/uL
RBC (9 h): 620 x10_4/ul
Ret (9 h): 9.2%
WBC (9 h): 93.8 x10_2/uL
KIDNEY_L (9 h): 1 g
KIDNEY_R (9 h): 1 g
KIDNEY_TOTAL (9 h): 2.1 g
LIVER (9 h): 8.4 g
A/G (9 h): 2
ALP (9 h): 1325.8 IU/L
ALT (9 h): 31 IU/L
AST (9 h): 60.4 IU/L
BUN (9 h): 28.4 mg/dL
CRE (9 h): 0.3 mg/dL
Ca (9 h): 11.2 mg/dL
Cl (9 h): 102.6 meq/L
DBIL (9 h): 0.016 mg/dL
GLC (9 h): 195.6 mg/dL
IP (9 h): 10.6 mg/dL
K (9 h): 5.4 meq/L
LDH (9 h): 104.4 IU/L
Na (9 h): 135.4 meq/L
PL (9 h): 144 mg/dL
RALB (9 h): 3.7 g/dL
TBIL (9 h): 0.068 mg/dL
TC (9 h): 84 mg/dL
TG (9 h): 50.2 mg/dL
TP (9 h): 5.5 g/dL
gamma-GTP (9 h): 0.8 IU/L
TERMINAL_BW (24 h): 218.4 g
APTT (24 h): 16.7 s
Bas (24 h): 0%
Eos (24 h): 1%
Fbg (24 h): 245.4 mg/dL
Hb (24 h): 12.6 g/dL
Ht (24 h): 38.9%
Lym (24 h): 77.4%
MCH (24 h): 21.1 pg
MCHC (24 h): 32.4%
MCV (24 h): 65.3 fL
Mono (24 h): 6.4%
Neu (24 h): 15%
PT (24 h): 12.3 s
Plat (24 h): 123 x10_4/uL
RBC (24 h): 596.6 x10_4/ul
Ret (24 h): 10.6%
WBC (24 h): 103.4 x10_2/uL
KIDNEY_L (24 h): 1 g
KIDNEY_R (24 h): 1 g
KIDNEY_TOTAL (24 h): 2 g
LIVER (24 h): 10.2 g
A/G (24 h): 2
ALP (24 h): 1597.6 IU/L
ALT (24 h): 40.2 IU/L
AST (24 h): 69.8 IU/L
BUN (24 h): 19.8 mg/dL
CRE (24 h): 0.4 mg/dL
Ca (24 h): 11.1 mg/dL
Cl (24 h): 103.6 meq/L
DBIL (24 h): 0 mg/dL
GLC (24 h): 197.4 mg/dL
IP (24 h): 8.5 mg/dL
K (24 h): 5.3 meq/L
LDH (24 h): 156.4 IU/L
Na (24 h): 137.2 meq/L
PL (24 h): 157 mg/dL
RALB (24 h): 3.6 g/dL
TBIL (24 h): 0.022 mg/dL
TC (24 h): 90.6 mg/dL
TG (24 h): 93 mg/dL
TP (24 h): 5.5 g/dL
gamma-GTP (24 h): 1.8 IU/L

— ChEMBL document CHEMBL3885861, “Open TG-GATES”
